Experiment [1] relates to CD4+/CD25+/FoxP3+ cells. The experiment can be described thus: FITC-PIF binding to regulatory T-cells, two- and three-color flow cytometry. As to conditions: 0-100 uM FITC-labelled peptide. Format: cell-based, human.
The subject of experiment [2] is Lymphocytes. The experiment can be described thus: FITC-PIF binding to mare immune cells, flow cytometry: lymphocytes. Format: cell-based. From the text: (§1) Method: whole blood was collected from jugular vein of pregnant (n=4) and non-pregnant (n=8) mares into lithium heparin vacutainers. Whole blood was layered over histopaque (Sigma) density gradient and red cells were allowed to settle through the gradient, leaving a leukocyte-rich plasma layer above. Cells were washed twice in sterile PBS and any remaining RBCs lysed with 0.16 M ammonium chloride solution. […] Cell types were separated based upon their scatter characteristics. […] FIG. 20 and Table 20 show mean+/−SEM in both pregnant and non-pregnant mares, and depicts binding characteristics showing significant differences between FITC-PIF and control, P<0.001.

The test system of experiment [3] is Granulocytes. The experiment can be described thus: FITC-PIF binding to mare immune cells, flow cytometry: granulocytes. In kind it is cell-based.
Source text: as §1
(In flow cytometry, cells or beads pass a laser one at a time.)

In experiment [4] the test system is Monocytes. Description: FITC-PIF binding to mare immune cells, flow cytometry: monocytes. In kind it is cell-based.
Source text: as §1

Where [5] appears, read: Non-pregnant mares, 1 ug/ml FITC-labelled peptide (n = 8).
[6] abbreviates: Non-pregnant mares, 5 ug/ml FITC-labelled peptide (n = 8).
[7] abbreviates: Non-pregnant mares, 10 ug/ml FITC-labelled peptide (n = 7).
Where [8] appears, read: Pregnant mares, 1 ug/ml FITC-labelled peptide (n = 4).
The mark [9] stands for this setting: Pregnant mares, 5 ug/ml FITC-labelled peptide (n = 4).
The mark [10] stands for this setting: Pregnant mares, 10 ug/ml FITC-labelled peptide (n = 4).

As to “GRVDPSNKSMPKDIA (scrPIF-1 (15)) [PIFscr, control]”, the “binding to CD4+/CD25+/FoxP3+ cells” value in experiment [1] was “minimal binding”. Besides, the “binding to Lymphocytes, Mean” value in experiment [2] (setting [5]) was 0.27; in experiment [2] (setting [6]), 1.08; in experiment [2] (setting [7]), 2.04; in experiment [2] (setting [8]), 0.12; in experiment [2] (setting [9]) it was 0.78; in experiment [2] (setting [10]), 2.84. The “binding to Granulocytes, Mean” value was 0.26 in experiment [3] (setting [5]); 1.78 in experiment [3] (setting [6]); 3.89 in experiment [3] (setting [7]); 0.09 in experiment [3] (setting [8]); 0.93 in experiment [3] (setting [9]); 4.51 in experiment [3] (setting [10]). In addition, the “binding to Monocytes, Mean” value is 1.10 in experiment [4] (setting [5]); 5.20 in experiment [4] (setting [6]); 12.39 in experiment [4] (setting [7]); 0.78 in experiment [4] (setting [8]); 6.36 in experiment [4] (setting [9]); 31.07 in experiment [4] (setting [10]).

Values taken from US20180318386A1, “PEPTIDES AND METHODS OF TREATING ENDOMETRIOSIS USING THE SAME” (BIOINCEPT, LLC, priority 2014, published 2018).
